Tests used:
[1] = test system: SF-539; test: NCI-60 SRB growth assay; assay type: cell-based, human; settings: for GI50 / CC50: Homo sapiens; for GI50 / TGI: SF-539; for CC50: SF-539, read-out: LC50
[2] = test system: SN12C; test: NCI-60 SRB growth assay; assay type: cell-based, human; settings: for GI50: Homo sapiens, SN12C; for TGI: SN12c
[3] = test system: HOP-92; test: NCI-60 SRB growth assay; assay type: cell-based, human; settings: for TGI / GI50: HOP-92; for GI50 / CC50: Homo sapiens; for CC50: HOP-92, read-out: LC50
[4] = test system: SR; test: NCI-60 SRB growth assay; assay type: cell-based, human
[5] = test system: UACC-62; test: NCI-60 SRB growth assay; assay type: cell-based, human; settings: for GI50 / CC50: Homo sapiens; for GI50 / TGI: UACC-62; for CC50: UACC-62, read-out: LC50
[6] = test system: UO-31; test: NCI-60 SRB growth assay; assay type: cell-based, human; settings: for GI50 / CC50: Homo sapiens; for GI50 / TGI: UO-31; for CC50: UO-31, read-out: LC50
[7] = test system: HCC-2998; test: NCI-60 SRB growth assay; assay type: cell-based, human; settings: for TGI: HCC-2998; for GI50: HCC 2998
[8] = test system: SW-620; test: NCI-60 SRB growth assay; assay type: cell-based, human; settings: for GI50 / CC50: Homo sapiens; for GI50: SW-620; for CC50: SW-620, read-out: LC50
[9] = test system: LOX IMVI; test: NCI-60 SRB growth assay; assay type: cell-based, human; settings: for GI50: Homo sapiens
[10] = test system: OVCAR-3; test: NCI-60 SRB growth assay; assay type: cell-based, human; settings: for GI50 / CC50: Homo sapiens; for GI50 / TGI: OVCAR-3; for CC50: OVCAR-3, read-out: LC50
[11] = test system: SNB-75; test: NCI-60 SRB growth assay; assay type: cell-based, human; settings: for GI50 / CC50: Homo sapiens; for GI50 / TGI: SNB-75; for CC50: SNB-75, read-out: LC50
[12] = test system: HL-60(TB); test: cells; settings: Homo sapiens; for GI50: HL-60; for CC50: HL-60, read-out: LC50
[13] = test system: HCT-15; test: NCI-60 SRB growth assay; assay type: cell-based, human; settings: for TGI / GI50: HCT-15
[14] = test system: HEK; test: MTT cytotoxicity assay; assay type: cell-based; settings: Homo sapiens, HEK293, 48 h
[15] = test system: MCF7; test: NCI-60 SRB growth assay; assay type: cell-based, human; settings: for GI50: Homo sapiens
[16] = test system: MALME-3M; test: NCI-60 SRB growth assay; assay type: cell-based, human; settings: for GI50: Homo sapiens, Malme-3M; for TGI: MALME-3M
[17] = test system: NCI/ADR-RES; test: NCI-60 SRB growth assay; assay type: cell-based, human; settings: for GI50 / CC50: Homo sapiens; for CC50: read-out: LC50
[18] = test system: SK-MEL-2; test: NCI-60 SRB growth assay; assay type: cell-based, human; settings: for GI50 / TGI: SK-MEL-2
[19] = test system: MDA-MB-468; test: NCI-60 SRB growth assay; assay type: cell-based, human; settings: MDA-MB-468; for GI50: Homo sapiens
[20] = target: T1, Hu Topo I (Homo sapiens, UniProt P11387); test: Plasmid DNA relaxation assay
T1 sequence (P11387 1-765): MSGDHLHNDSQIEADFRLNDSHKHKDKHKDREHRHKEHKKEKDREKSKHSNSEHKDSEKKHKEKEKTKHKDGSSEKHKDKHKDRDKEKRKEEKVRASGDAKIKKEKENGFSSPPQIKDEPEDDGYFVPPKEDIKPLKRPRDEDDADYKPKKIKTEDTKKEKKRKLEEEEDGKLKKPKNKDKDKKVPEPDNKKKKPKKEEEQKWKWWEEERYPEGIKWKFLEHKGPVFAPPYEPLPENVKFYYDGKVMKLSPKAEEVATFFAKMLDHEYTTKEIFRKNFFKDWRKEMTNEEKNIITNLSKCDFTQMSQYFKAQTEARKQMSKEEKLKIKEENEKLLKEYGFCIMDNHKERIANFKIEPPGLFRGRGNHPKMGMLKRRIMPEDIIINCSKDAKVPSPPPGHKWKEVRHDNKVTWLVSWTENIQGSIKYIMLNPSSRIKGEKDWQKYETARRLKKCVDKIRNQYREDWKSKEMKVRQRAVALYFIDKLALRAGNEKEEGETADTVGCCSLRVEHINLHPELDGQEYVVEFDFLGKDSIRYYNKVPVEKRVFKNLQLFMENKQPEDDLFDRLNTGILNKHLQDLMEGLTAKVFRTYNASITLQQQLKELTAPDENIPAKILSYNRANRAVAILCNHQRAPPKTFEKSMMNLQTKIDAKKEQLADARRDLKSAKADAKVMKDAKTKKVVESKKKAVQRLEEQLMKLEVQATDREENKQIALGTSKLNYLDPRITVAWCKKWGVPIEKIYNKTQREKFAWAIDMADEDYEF

[21] = test system: PC-3; test: NCI-60 SRB growth assay; assay type: cell-based, human; settings: for GI50 / CC50: Homo sapiens; for GI50 / TGI: PC-3; for CC50: PC-3, read-out: LC50
[22] = test system: HCT-116; test: NCI-60 SRB growth assay; assay type: cell-based, human; settings: for TGI / GI50: HCT-116
[23] = test system: DU-145; test: NCI-60 SRB growth assay; assay type: cell-based, human; settings: for TGI / GI50: DU-145; for GI50 / CC50: Homo sapiens; for CC50: DU-145, read-out: LC50
[24] = test system: HOP-62; test: NCI-60 SRB growth assay; assay type: cell-based, human; settings: HOP-62; for GI50: Homo sapiens
[25] = test system: CCRF-CEM; test: NCI-60 SRB growth assay; assay type: cell-based, human; settings: for GI50 / CC50: Homo sapiens; for CC50: read-out: LC50
[26] = test system: MDA-MB-231/ATCC; test: NCI-60 SRB growth assay; assay type: cell-based, human; settings: for GI50 / CC50: Homo sapiens; for GI50 / TGI: MDA-MB-231; for CC50: MDA-MB-231, read-out: LC50

CCCCN1CCN(c2ccc3[nH]c(-c4ccc5[nH]c(-c6ccc(OCC)c(OCC)c6)nc5c4)nc3c2)CC1 [12a, 5-(4-Butylpiperazin-1-yl)-2-(2-(3,4-diethoxyphenyl)-1H-benzo[d]imidazol-5-yl)-1H-benzo[d]imidazole]
GI50 [1]: 1260 nM | CC50 [1]: 5200 nM | TGI [1]: 2560 nM | GI50 [2]: 1030 nM | TGI [2]: 2610 nM | TGI [3]: 3170 nM | GI50 [3]: 1230 nM | CC50 [3]: 8150 nM | TGI [4]: 1190 nM | GI50 ([4]; Homo sapiens): 310 nM | CC50 ([4]; Homo sapiens, read-out: LC50): > 100000 nM | GI50 [5]: 680 nM | CC50 [5]: 5420 nM | TGI [5]: 2180 nM | GI50 [6]: 2000 nM | CC50 [6]: 43800 nM | TGI [6]: 5800 nM | TGI [7]: 3220 nM | GI50 ([7]; Homo sapiens): 1710 nM | GI50 [8]: 470 nM | CC50 [8]: 5150 nM | TGI ([8]; SW620): 1790 nM | TGI [9]: 1620 nM | GI50 [9]: 420 nM | GI50 [10]: 350 nM | CC50 [10]: 2920 nM | TGI [10]: 850 nM | GI50 [11]: 650 nM | CC50 [11]: 4540 nM | TGI [11]: 2010 nM | GI50 [12]: 700 nM | CC50 [12]: 67900 nM | TGI [13]: 3320 nM | GI50 ([13]; Homo sapiens): 1560 nM | CC50 ([13]; Homo sapiens, HCT-15, read-out: LC50): 7050 nM | IC50 [14]: 2700 nM | TGI [15]: 1420 nM | GI50 [15]: 190 nM | GI50 [16]: 190 nM | TGI [16]: 1180 nM | TGI [17]: 100000 nM | GI50 [17]: 100000 nM | CC50 [17]: > 100000 nM | GI50 ([18]; Homo sapiens): 1680 nM | TGI [18]: 3660 nM | GI50 [19]: 1270 nM | TGI [19]: 3090 nM | IC90 [20]: 152000 nM | GI50 [21]: 1080 nM | CC50 [21]: 5490 nM | TGI [21]: 2440 nM | TGI [22]: 1660 nM | GI50 ([22]; Homo sapiens): 430 nM | CC50 ([22]; Homo sapiens, HCT-116, read-out: LC50): 4300 nM | TGI [23]: 2210 nM | GI50 [23]: 1000 nM | CC50 [23]: 4880 nM | TGI [24]: 3400 nM | GI50 [24]: 1810 nM | TGI [25]: 3060 nM | GI50 [25]: 530 nM | CC50 [25]: > 100000 nM | GI50 [26]: 1690 nM | CC50 [26]: 6380 nM | TGI [26]: 3280 nM

CCCCN1CCN(c2ccc3[nH]c(-c4ccc5[nH]c(-c6ccc(C(F)(F)F)cc6)nc5c4)nc3c2)CC1 [12b, 5-(5-(4-Butylpiperazin-1-yl)-1H-benzo[d]imidazol-2-yl)2(4(trifluoromethyl)phenyl)-1H-benzo[d]imidazole]
GI50 [1]: 1600 nM | CC50 [1]: 5800 nM | TGI [1]: 3050 nM | GI50 [2]: 1540 nM | TGI [2]: 3020 nM | TGI [3]: 2780 nM | GI50 [3]: 1180 nM | CC50 [3]: 6500 nM | TGI [4]: 650 nM | GI50 ([4]; Homo sapiens): 260 nM | GI50 [5]: 1500 nM | CC50 [5]: 5800 nM | TGI [5]: 2900 nM | GI50 [6]: 1770 nM | CC50 [6]: 5900 nM | TGI [6]: 3240 nM | TGI [7]: 3500 nM | GI50 ([7]; Homo sapiens): 1800 nM | CC50 ([7]; Homo sapiens, HCC 2998, read-out: LC50): 6600 nM | GI50 [8]: 210 nM | CC50 [8]: 450 nM | TGI [9]: 1100 nM | GI50 [9]: 380 nM | GI50 [10]: 210 nM | CC50 [10]: 730 nM | TGI [10]: 400 nM | GI50 [11]: 1050 nM | CC50 [11]: 4800 nM | TGI [11]: 2250 nM | GI50 [12]: 1200 nM | CC50 [12]: 6600 nM | TGI [13]: 740 nM | GI50 ([13]; Homo sapiens): 270 nM | IC50 [14]: 2700 nM | TGI [15]: 570 nM | GI50 [15]: 170 nM | GI50 [16]: 1400 nM | TGI [16]: 3000 nM | TGI [17]: 57700 nM | GI50 [17]: 2100 nM | CC50 [17]: > 100000 nM | GI50 ([18]; Homo sapiens): 1800 nM | CC50 ([18]; Homo sapiens, SK-MEL-2, read-out: LC50): 6300 nM | TGI [18]: 3300 nM | GI50 [19]: 1660 nM | TGI [19]: 3340 nM | IC50 [20]: 16000 nM | GI50 [21]: 860 nM | CC50 [21]: 5500 nM | TGI [21]: 2310 nM | TGI [22]: 420 nM | GI50 ([22]; Homo sapiens): 200 nM | TGI [23]: 1680 nM | GI50 [23]: 450 nM | CC50 [23]: 4300 nM | TGI [24]: 3050 nM | GI50 [24]: 1300 nM | TGI [25]: 1030 nM | GI50 [25]: 300 nM | CC50 [25]: 5040 nM | GI50 [26]: 1460 nM | CC50 [26]: 5840 nM | TGI [26]: 2920 nM

Source: paper PMC8793051 (ACS Omega, 2022)
